# Data reported in the supplement of paper PMC13380429.
# Tests used:
# Details in all cases: 72 h
# [1] = system: Caco-2; test: cell viability relative to DMSO; higher = less toxic
# [2] = system: Calu-3; test: as above
# [3] = system: HepG2; test: as above
# [4] = system: U2OS; test: as above
# [5] = system: Vero E6; test: as above
# [6] = system: Caco-2; test: relative viability EC50 (midpoint between 100% and the lowest measured viability); higher = less toxic
# [7] = system: Calu-3; test: as above
# [8] = system: HepG2; test: as above
# [9] = system: U2OS; test: as above
# [10] = system: Caco-2; test: drug sensitivity score (DSS) for viability; higher = more toxic; extreme values may be limits of the assay
# [11] = system: Calu-3; test: as above
# [12] = system: HepG2; test: as above
# [13] = system: U2OS; test: as above
# [14] = system: Vero E6; test: as above
# [15] = system: Vero E6; test: relative viability EC50 (midpoint between 100% and the lowest measured viability); higher = less toxic
Structure (SMILES),cell viability ([1]; 1 nM),cell viability ([1]; 10 nM),cell viability ([1]; 100 nM),cell viability ([1]; 1000 nM),cell viability ([1]; 10000 nM),cell viability ([2]; 1 nM),cell viability ([2]; 10 nM),cell viability ([2]; 100 nM),cell viability ([2]; 1000 nM),cell viability ([2]; 10000 nM),cell viability ([3]; 1 nM),cell viability ([3]; 10 nM),cell viability ([3]; 100 nM),cell viability ([3]; 1000 nM),cell viability ([3]; 10000 nM),cell viability ([4]; 1 nM),cell viability ([4]; 10 nM),cell viability ([4]; 100 nM),cell viability ([4]; 1000 nM),cell viability ([4]; 10000 nM),cell viability ([5]; 1 nM),cell viability ([5]; 10 nM),cell viability ([5]; 100 nM),cell viability ([5]; 1000 nM),cell viability ([5]; 10000 nM),relative viability EC50 [6],relative viability EC50 [7],relative viability EC50 [8],relative viability EC50 [9],drug sensitivity score [10],drug sensitivity score [11],drug sensitivity score [12],drug sensitivity score [13],drug sensitivity score [14],relative viability EC50 [15]
COc1cc(OC)c2c(=O)[nH]c(-c3cc(C)c(OCCO)c(C)c3)nc2c1 [apabetalone],109%,96.9%,102%,101%,87.6%,98.5%,90.2%,90.2%,99.4%,102%,101%,99.9%,91.3%,93.2%,79.9%,102%,102%,104%,96.8%,89.2%,99.8%,98.4%,105%,93%,63.8%,> 10 µM,> 10 µM,> 10 µM,> 10 µM,0,0,0.9,0,2.9,–
CC(C)CNc1nc(-c2cccc3ncccc23)cn2c(-c3ccc(C(=O)NC4CC4)cc3)cnc12 [Mps-BAY-2a],93.1%,82.9%,93.1%,79.4%,79.9%,107%,98.5%,104%,103%,93%,87.9%,100%,86%,57.4%,47.6%,101%,97.6%,103%,99.1%,70.6%,95.7%,94.5%,90.1%,71.1%,62.2%,> 10 µM,> 10 µM,0.255 µM,–,3.8,0,9.3,1.4,5.9,–
CCCCCCCCCCCCCCCCCCCCCCCCC(=O)O [pentacosanoic-acid],99.2%,106%,103%,96.8%,101%,91.9%,97.1%,92.5%,92.2%,102%,112%,109%,98%,102%,111%,98.3%,98.5%,97.4%,95.9%,106%,–,–,–,–,–,> 10 µM,> 10 µM,> 10 µM,> 10 µM,0,0,0,0,–,–
CC(=O)N1CCN(c2ccc(OC[C@@H]3CO[C@@](Cn4ccnc4)(c4ccc(Cl)cc4Cl)O3)cc2)CC1 (racemic) [ketoconazole],91.9%,110%,95.1%,104%,82.6%,97.1%,90.6%,96.3%,96.3%,96.9%,112%,96.1%,111%,102%,83.3%,98.3%,101%,99.3%,103%,95.3%,–,–,–,–,–,> 10 µM,> 10 µM,> 10 µM,> 10 µM,0.3,0,0.3,0,–,–
CC1(C)S[C@@H]2[C@H](NC(=O)[C@H](C(=O)O)c3ccsc3)C(=O)N2[C@H]1C(=O)O [ticarcillin],103%,97.6%,91.1%,102%,93.6%,91.5%,106%,109%,97.7%,103%,106%,97.3%,87.7%,102%,88.8%,101%,100%,98.6%,98.1%,101%,–,–,–,–,–,> 10 µM,> 10 µM,> 10 µM,> 10 µM,0,0,0,0,–,–
C=Cc1cc(O)cc2nc(-c3ccc(O)c(F)c3)oc12 [prinaberel],95.5%,99.7%,88.7%,90%,91.9%,96.8%,104%,95.3%,95.9%,93.4%,102%,104%,93.4%,103%,74.6%,100%,101%,94.6%,98.6%,96.9%,103%,99.9%,98%,100%,95.5%,> 10 µM,> 10 µM,–,> 10 µM,0.7,0,0.8,0,0,> 10 µM
Nc1ccn([C@@H]2O[C@H](CO)[C@@H](O)[C@@H]2O)c(=O)n1 [cytarabine],106%,97%,90.7%,85.9%,80.6%,99.6%,93.8%,91.9%,88.6%,70.9%,95.2%,100%,66.4%,42.1%,38.7%,103%,94.3%,96.3%,96.9%,72.8%,95.8%,96.5%,93.5%,95.1%,62.1%,> 10 µM,–,0.09 µM,–,2.1,2.4,15.2,1.6,2.7,–
O=C1c2ccccc2C(=O)C1c1ccccc1 [phenindione],88.5%,89.3%,99.4%,94.1%,101%,108%,85.4%,100%,95.2%,106%,89.4%,110%,93.7%,98.5%,101%,105%,97.9%,103%,99.3%,102%,–,–,–,–,–,> 10 µM,> 10 µM,> 10 µM,> 10 µM,0,0,0,0,–,–
N=C(Nc1ccc(I)cc1)NC1C2CC3CC(C2)CC1C3 (configuration not stated) [IPAG],103%,98.4%,97.9%,88.3%,16.2%,106%,103%,98.2%,101%,77.2%,97.7%,96%,87.6%,84.8%,17%,103%,102%,105%,96.4%,93.8%,95.7%,102%,94.5%,94.2%,63.8%,2.05 µM,> 10 µM,1.81 µM,> 10 µM,6.6,0.7,7.1,0,2.7,–
CC(C)(C)C[C@@H]1N[C@@H](C(=O)N[C@H]2CC[C@H](O)CC2)[C@H](c2cccc(Cl)c2F)[C@]12C(=O)Nc1cc(Cl)ccc12,97.7%,104%,91%,94.3%,73.2%,90.6%,92.3%,95.5%,110%,73.1%,108%,95.8%,95.5%,28.7%,24.2%,99.6%,109%,96.3%,80.7%,58.2%,100%,102%,97.8%,63.4%,49.3%,–,–,0.315 µM,–,1.7,0.7,13.8,4.2,7.2,0.583 µM
CNC(=O)c1ccc(Nc2ncc(C(F)(F)F)c(NCc3nccnc3N(C)S(C)(=O)=O)n2)cc1 [defactinib],95.4%,101%,90.1%,100%,89.9%,97.5%,86.2%,106%,88.1%,95.6%,100%,95.2%,107%,81.4%,68.1%,98.2%,100%,93.8%,96.5%,75%,106%,99.8%,101%,84.2%,76%,> 10 µM,> 10 µM,–,> 10 µM,0,0,3.6,1.5,2.6,> 10 µM
CCOc1ccc2nc3cc(N)ccc3c(N)c2c1 [ethacridine-lactate-monohydrate],97.4%,104%,101%,110%,95.4%,–,–,–,–,–,115%,131%,124%,96.6%,25.4%,106%,105%,104%,105%,55.6%,102%,101%,100%,102%,97.2%,> 10 µM,–,2.82 µM,–,0,–,4.6,1.9,0,> 10 µM
CCn1c(=O)n([C@H]2CCCN(c3nccc(-c4cc5ccccc5o4)n3)C2)c2ccccc21 [TC-F-2],95.6%,91.4%,85.1%,92%,84.9%,98.8%,99.6%,114%,104%,98.4%,96%,103%,99.2%,90.7%,56.9%,95.1%,101%,96.4%,98.8%,96.5%,103%,99.5%,96.1%,96.6%,102%,> 10 µM,> 10 µM,–,> 10 µM,1.4,0,3.7,0,0,> 10 µM
O=C(NCC1(N2CCN(c3ccccc3)CC2)CCOCC1)c1cccnc1Sc1ccccc1,99.8%,97.4%,103%,98.1%,94.1%,99.4%,106%,104%,99.8%,95%,107%,101%,103%,97.5%,91.4%,96.1%,96.5%,101%,98.9%,102%,–,–,–,–,–,> 10 µM,> 10 µM,> 10 µM,> 10 µM,0,0,0,0,–,–
Cc1ccccc1C(OCCN(C)C)c1ccccc1 (configuration not stated) [orphenadrine],99.9%,93.6%,94.3%,98.7%,95.5%,99.5%,103%,106%,102%,92.9%,102%,108%,90.7%,105%,109%,106%,97.7%,95.5%,97.5%,97.8%,–,–,–,–,–,> 10 µM,> 10 µM,> 10 µM,> 10 µM,0,0,0,0,–,–
